PubChem BioAssay (NCI)
“And” between values parts separate entries of the source, which are not always exact repeats. Identical values can stand only once.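 A five-concentration, 48-hour dose response in 96-well plates underlies each endpoint, interpolated linearly between surrounding concentrations. GI50 marks 50% less growth. The concentration for full growth arrest is given as TGI.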

What was measured:
Experiment in all cases: DTP human tumour cell line panel, 48 h
A498 renal = test system: A498 renal
COLO 205 colon = test system: COLO 205 colon
EKVX NSCLC = test system: EKVX NSCLC
KM12 colon = test system: KM12 colon
MOLT-4 leukemia = test system: MOLT-4 leukemia
NCI-H23 lung = test system: NCI-H23 lung
SF-268 CNS = test system: SF-268 CNS
LOX IMVI melanoma = test system: LOX IMVI melanoma
RPMI-8226 leukemia = test system: RPMI-8226 leukemia
RXF 393 renal = test system: RXF 393 renal

| SMILES | TGI (A498 renal) | TGI (COLO 205 colon) | TGI (EKVX NSCLC) | TGI (KM12 colon) | TGI (MOLT-4 leukemia) | TGI (NCI-H23 lung) | TGI (SF-268 CNS) | TGI (LOX IMVI melanoma) | TGI (RPMI-8226 leukemia) | TGI (RXF 393 renal) | GI50 (A498 renal) | GI50 (COLO 205 colon) | GI50 (EKVX NSCLC) | GI50 (KM12 colon) | GI50 (LOX IMVI melanoma) | GI50 (MOLT-4 leukemia) | GI50 (NCI-H23 lung) | GI50 (RPMI-8226 leukemia) | GI50 (SF-268 CNS) | GI50 (RXF 393 renal) |
| --- | --- | --- | --- | --- | --- | --- | --- | --- | --- | --- | --- | --- | --- | --- | --- | --- | --- | --- | --- | --- |
| Cc1cccc(C(C)O)n1 (configuration not stated) | > 100 µM | > 100 µM | > 100 µM | > 100 µM | > 100 µM | > 100 µM | > 100 µM |  |  |  |  |  |  |  |  |  |  |  |  |  |
| CCc1ccccc1NC(=O)CCc1nc(=S)[nH][nH]1 | > 100 µM | > 100 µM |  | > 100 µM | > 100 µM | > 100 µM | > 100 µM | > 100 µM | > 100 µM | > 100 µM |  |  |  |  |  |  |  |  |  |  |
| CSC(=S)N(C)c1nc(=[N+](C)C)ss1 | > 100 µM |  | > 100 µM | > 100 µM | > 100 µM | > 100 µM | > 100 µM |  | > 100 µM | > 100 µM |  |  |  |  |  |  |  |  |  |  |
| Cc1ccccc1C(C#N)/C(=N/NC(=O)c1cc2ccccc2cc1O)C(=O)Nc1cccc(Cl)c1 (configuration not stated) | > 100 µM | 72.5 µM | > 100 µM | > 100 µM | > 100 µM | 51.2 µM | 90.3 µM |  | > 100 µM |  |  |  |  |  |  |  |  |  |  |  |
| C[C@]12CC[C@H]3[C@@H](CC=C4C[C@@H](O)CC[C@@]43C)[C@@H]1C/C(=C\c1cccc(OCCN3CCOCC3)c1)[C@@H]2O | > 100 µM | 58.3 µM | > 100 µM | > 100 µM | 48.7 µM | > 100 µM | > 100 µM | > 100 µM | > 100 µM |  | > 100 µM | 7.39 µM | > 100 µM | > 100 µM | > 100 µM | 13.3 µM | 48.5 µM | 7.83 µM | 70.9 µM |  |
| CC(=O)/C=C1/c2ccccc2N(C(C)=O)C1O (configuration not stated) | > 100 µM | > 100 µM | > 100 µM | > 100 µM | > 100 µM | > 100 µM |  |  | > 100 µM | > 100 µM |  |  |  |  |  |  |  |  |  |  |
| Cn1c2ccccc2c2c(=O)n(CCCC(=O)NCC(=O)OC(=NC3CCCCC3)NC3CCCCC3)c3c(-c4ccccc4)nnn3c21 | > 100 µM | > 100 µM |  | > 100 µM | > 100 µM | 33 µM | > 100 µM | 97.3 µM | 21.2 µM | 36.9 µM | 30.6 µM | 2.81 µM |  | 31.3 µM | 13.1 µM | 14.5 µM | 15.6 µM | 4.26 µM | 15 µM | 11.1 µM |
| O=c1cc/c(=N\Nc2ccccc2)c(=O)/c1=N/Nc1ccccc1 | > 50 µM | > 50 µM | > 50 µM | > 50 µM | > 50 µM | > 50 µM | > 50 µM | > 50 µM |  | > 50 µM | > 50 µM | > 50 µM | > 50 µM | > 50 µM | > 50 µM | > 50 µM | > 50 µM |  | > 50 µM | > 50 µM |
| CCCCCCC(C)CC(CCCCCC)NCCOC(=O)c1ccc([N+](=O)[O-])cc1 (configuration not stated) | 34 µM and 34.8 µM | 17.9 µM and 12.8 µM | 27.2 µM and 21.4 µM | 27.9 µM and 23.7 µM |  | 38.9 µM and 34.5 µM | 30.7 µM and 27.6 µM | 24.7 µM and 19.5 µM | 24 µM and 30.2 µM |  |  |  |  |  |  |  |  |  |  |  |
